Source: ChEMBL document CHEMBL5543122, “Discovery of HC-7366: An Orally Bioavailable and Efficacious GCN2 Kinase Activator” (J Med Chem, 2024)
In brackets after ≈: the same amount, converted by molar mass.

How the values were obtained:
[1] = Unbound clearance in BALB/c mouse plasma at 3 mg/kg, po and 1 mg/kg, iv measured upto 24 hrs; assay type: ADME, organism-based; conditions: in vivo
[2] = Unbound fraction in BALB/c mouse plasma at 3 mg/kg, po and 1 mg/kg, iv measured upto 24 hrs; assay type: ADME, organism-based
[3] = target: Receptor-interacting serine/threonine-protein kinase 3 (Homo sapiens, UniProt Q9Y572); experiment: Inhibition of RIPK3 in human MOLM16 cells; assay type: cell-based
[4] = Oral bioavailability in Sprague-Dawley rat at 3 mg/kg measured upto 24 hrs; assay type: ADME, organism-based; conditions: in vivo, po, 3 mg/kg, 24 h
[5] = Antitumor activity against human MOLM16 cells xenografted in BALB/c nude mouse assessed as tumor growth inhibition at 1 mg/kg administered twice a day for 17 days; assay type: functional, MOLM-16; conditions: MOLM16, 408 h, time 17 day, read-out: TGI
[6] = Unbound AUC in Sprague-Dawley rat at 3 mg/kg, po measured upto 24 hrs; assay type: ADME, organism-based; conditions: in vivo
[7] = Unbound Cmax in BALB/c mouse at 3 mg/kg, po and 1 mg/kg, iv measured upto 24 hrs; assay type: ADME, organism-based; conditions: in vivo
[8] = Unbound volume of distribution at steady state in Sprague-Dawley rat at 1 mg/kg, iv measured upto 24 hrs; assay type: ADME, organism-based; conditions: in vivo
[9] = Unbound clearance in Sprague-Dawley rat plasma at 1 mg/kg, iv measured upto 24 hrs; assay type: ADME, organism-based; conditions: in vivo
[10] = target: Phosphatidylinositol 4-phosphate 3-kinase C2 domain-containing subunit beta (Homo sapiens, UniProt O00750); experiment: Inhibition of PIK3C2B in human MOLM16 cells; assay type: cell-based
[11] = Unbound volume of distribution at steady state in BALB/c mouse at 3 mg/kg, po and 1 mg/kg, iv measured upto 24 hrs; assay type: ADME, organism-based; conditions: in vivo
[12] = target: Cytochrome P450 3A4 (Homo sapiens, UniProt P08684); experiment: Inhibition of CYP3A4 in human liver microsomes using midazolam substrate incubated for 5 mins in presence of NADPH by UPLC-MS/MS analysis
[13] = Cmax in BALB/c mouse at 3 mg/kg, po and 1 mg/kg, iv measured upto 24 hrs; assay type: ADME, organism-based; conditions: in vivo
[14] = Intrinsic clearance in human hepatocytes assessed per 10^4 cells at 1 uM measured upto 120 mins by UPLC-MS/MS analysis; assay type: ADME, cell-based, Hepatocyte; conditions: 2 h
[15] = target: T1, Eukaryotic translation initiation factor 2-alpha kinase 3 (Homo sapiens, UniProt Q9NZJ5); experiment: Activation of PERK in HEK293 cells transfected with ATF4 response element preincubated for 30 mins followed by tunicamycin addition and measured after 6 hrs by One-Glo reagent based plate reader assay; assay type: cell-based
T1 sequence (Q9NZJ5 whole entry): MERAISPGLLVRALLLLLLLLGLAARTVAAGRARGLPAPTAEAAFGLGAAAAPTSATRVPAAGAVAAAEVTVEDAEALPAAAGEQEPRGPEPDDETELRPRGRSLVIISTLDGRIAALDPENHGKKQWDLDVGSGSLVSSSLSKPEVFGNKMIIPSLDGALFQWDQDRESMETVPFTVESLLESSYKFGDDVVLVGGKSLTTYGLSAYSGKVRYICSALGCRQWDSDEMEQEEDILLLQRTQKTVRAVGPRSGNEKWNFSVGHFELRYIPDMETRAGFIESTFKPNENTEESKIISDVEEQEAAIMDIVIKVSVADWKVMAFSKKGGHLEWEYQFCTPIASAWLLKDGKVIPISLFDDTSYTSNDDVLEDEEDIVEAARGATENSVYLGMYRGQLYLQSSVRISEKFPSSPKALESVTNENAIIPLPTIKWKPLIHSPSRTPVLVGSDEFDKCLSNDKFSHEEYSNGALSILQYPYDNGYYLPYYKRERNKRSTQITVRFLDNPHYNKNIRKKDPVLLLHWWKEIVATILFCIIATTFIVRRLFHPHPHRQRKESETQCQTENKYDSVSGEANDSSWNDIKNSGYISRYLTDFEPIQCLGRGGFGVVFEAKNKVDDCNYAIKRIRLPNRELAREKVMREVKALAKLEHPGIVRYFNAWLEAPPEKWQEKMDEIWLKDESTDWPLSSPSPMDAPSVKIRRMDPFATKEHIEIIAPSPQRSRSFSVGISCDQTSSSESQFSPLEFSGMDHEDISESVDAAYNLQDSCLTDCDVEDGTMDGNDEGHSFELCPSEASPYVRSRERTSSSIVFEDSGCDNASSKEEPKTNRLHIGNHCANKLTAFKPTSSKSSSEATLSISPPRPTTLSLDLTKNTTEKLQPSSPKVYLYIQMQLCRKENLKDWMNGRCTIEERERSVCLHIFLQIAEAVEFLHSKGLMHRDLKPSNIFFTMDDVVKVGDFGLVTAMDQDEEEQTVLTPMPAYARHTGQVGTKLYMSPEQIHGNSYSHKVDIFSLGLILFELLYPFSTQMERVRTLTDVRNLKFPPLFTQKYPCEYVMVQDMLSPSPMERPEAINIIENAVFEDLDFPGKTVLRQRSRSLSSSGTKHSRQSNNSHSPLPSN

[16] = Antitumor activity against human MOLM16 cells xenografted in BALB/c nude mouse assessed as tumor growth inhibition at 3 mg/kg administered twice a day for 17 days; assay type: functional, MOLM-16; conditions: MOLM16, 408 h, time 17 day, read-out: TGI
[17] = Unbound AUC in BALB/c mouse at 3 mg/kg, po measured upto 24 hrs; assay type: ADME, organism-based; conditions: in vivo
[18] = Antitumor activity against human MOLM16 cells xenografted in BALB/c nude mouse assessed as tumor growth inhibition at 0.3 mg/kg administered twice a day for 17 days; assay type: functional, MOLM-16; conditions: MOLM16, 408 h, time 17 day, read-out: TGI
[19] = physchem; conditions: SGF
Description: Thermodynamic solubility in SGF at 1 mg incubated for 24 hrs by UPLC-MS/MS analysis

[20] = Protein binding in HEK293 cells assessed as free fraction; assay type: ADME, cell-based; conditions: human
[21] = Unbound fraction in Sprague-Dawley rat plasma at 1 mg/kg, iv measured upto 24 hrs; assay type: ADME, organism-based
[22] = Cmax in Sprague-Dawley rat at 3 mg/kg, po measured upto 24 hrs; assay type: ADME, organism-based; conditions: in vivo
[23] = target: Mitogen-activated protein kinase kinase kinase 20 (Homo sapiens, UniProt Q9NYL2); experiment: Inhibition of ZAK in human MOLM16 cells; assay type: cell-based
[24] = Toxicity in BALB/c nude mouse xenografted with human HT-1080 cells assessed as change in body weight at 0.3 to 3 mg/kg administered twice a day for 14 days; assay type: organism-based; conditions: in vivo, 336 h, dose 0.3-3 mg/kg, time 14 day
[25] = Apparent permeability across apical to basolateral in human Caco-2 cells at 5 uM measured after 120 mins by UPLC-MS/MS analysis

Sequence of Cytochrome P450 3A4 (P08684 whole entry): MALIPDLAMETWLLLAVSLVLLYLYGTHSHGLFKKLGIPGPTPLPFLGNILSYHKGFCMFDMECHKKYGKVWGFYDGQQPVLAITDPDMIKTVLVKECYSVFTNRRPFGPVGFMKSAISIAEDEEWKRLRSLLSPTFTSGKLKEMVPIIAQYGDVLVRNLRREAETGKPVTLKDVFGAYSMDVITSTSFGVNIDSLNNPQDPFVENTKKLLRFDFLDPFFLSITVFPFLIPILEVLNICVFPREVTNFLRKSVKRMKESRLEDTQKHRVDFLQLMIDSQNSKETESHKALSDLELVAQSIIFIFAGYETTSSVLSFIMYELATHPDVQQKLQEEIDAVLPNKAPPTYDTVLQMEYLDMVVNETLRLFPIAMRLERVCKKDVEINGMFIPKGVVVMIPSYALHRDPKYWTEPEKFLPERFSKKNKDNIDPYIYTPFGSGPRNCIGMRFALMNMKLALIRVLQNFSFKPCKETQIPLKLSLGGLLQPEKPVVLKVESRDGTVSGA
Sequence of Mitogen-activated protein kinase kinase kinase 20 (Q9NYL2 whole entry): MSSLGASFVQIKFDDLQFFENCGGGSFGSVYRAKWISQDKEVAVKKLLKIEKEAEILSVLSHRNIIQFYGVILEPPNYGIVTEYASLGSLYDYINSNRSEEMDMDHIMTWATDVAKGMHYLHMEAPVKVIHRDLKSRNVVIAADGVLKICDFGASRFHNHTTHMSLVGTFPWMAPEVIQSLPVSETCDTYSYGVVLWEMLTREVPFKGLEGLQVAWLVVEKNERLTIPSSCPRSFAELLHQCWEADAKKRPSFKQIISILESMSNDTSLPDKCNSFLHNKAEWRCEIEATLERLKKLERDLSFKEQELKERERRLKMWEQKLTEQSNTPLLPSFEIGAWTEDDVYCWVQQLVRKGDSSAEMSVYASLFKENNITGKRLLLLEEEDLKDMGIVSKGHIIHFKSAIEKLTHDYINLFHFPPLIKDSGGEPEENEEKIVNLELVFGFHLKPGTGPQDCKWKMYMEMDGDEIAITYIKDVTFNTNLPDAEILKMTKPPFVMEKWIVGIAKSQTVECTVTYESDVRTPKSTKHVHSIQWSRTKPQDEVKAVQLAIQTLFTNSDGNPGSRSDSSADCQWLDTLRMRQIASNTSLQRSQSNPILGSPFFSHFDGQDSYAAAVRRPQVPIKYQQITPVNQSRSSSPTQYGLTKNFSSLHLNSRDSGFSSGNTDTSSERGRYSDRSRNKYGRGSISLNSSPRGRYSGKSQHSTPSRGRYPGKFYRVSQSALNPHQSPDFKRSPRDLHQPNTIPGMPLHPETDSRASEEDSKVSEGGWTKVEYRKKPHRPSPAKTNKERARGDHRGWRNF
Sequence of Receptor-interacting serine/threonine-protein kinase 3 (Q9Y572 whole entry): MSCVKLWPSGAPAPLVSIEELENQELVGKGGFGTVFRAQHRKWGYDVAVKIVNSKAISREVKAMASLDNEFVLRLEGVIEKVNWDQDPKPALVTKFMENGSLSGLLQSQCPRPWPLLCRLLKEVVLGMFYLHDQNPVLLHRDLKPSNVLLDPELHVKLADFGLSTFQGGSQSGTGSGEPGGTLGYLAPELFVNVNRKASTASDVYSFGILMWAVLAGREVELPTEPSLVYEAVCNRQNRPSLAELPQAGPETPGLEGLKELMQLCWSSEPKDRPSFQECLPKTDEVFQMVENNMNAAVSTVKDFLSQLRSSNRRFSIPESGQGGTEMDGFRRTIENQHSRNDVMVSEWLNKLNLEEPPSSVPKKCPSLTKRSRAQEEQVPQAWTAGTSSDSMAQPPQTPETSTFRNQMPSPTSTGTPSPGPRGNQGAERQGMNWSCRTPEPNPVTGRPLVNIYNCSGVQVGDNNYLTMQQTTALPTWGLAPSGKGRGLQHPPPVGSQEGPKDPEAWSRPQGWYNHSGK
Sequence of Phosphatidylinositol 4-phosphate 3-kinase C2 domain-containing subunit beta (O00750 whole entry, the tested form may be a part): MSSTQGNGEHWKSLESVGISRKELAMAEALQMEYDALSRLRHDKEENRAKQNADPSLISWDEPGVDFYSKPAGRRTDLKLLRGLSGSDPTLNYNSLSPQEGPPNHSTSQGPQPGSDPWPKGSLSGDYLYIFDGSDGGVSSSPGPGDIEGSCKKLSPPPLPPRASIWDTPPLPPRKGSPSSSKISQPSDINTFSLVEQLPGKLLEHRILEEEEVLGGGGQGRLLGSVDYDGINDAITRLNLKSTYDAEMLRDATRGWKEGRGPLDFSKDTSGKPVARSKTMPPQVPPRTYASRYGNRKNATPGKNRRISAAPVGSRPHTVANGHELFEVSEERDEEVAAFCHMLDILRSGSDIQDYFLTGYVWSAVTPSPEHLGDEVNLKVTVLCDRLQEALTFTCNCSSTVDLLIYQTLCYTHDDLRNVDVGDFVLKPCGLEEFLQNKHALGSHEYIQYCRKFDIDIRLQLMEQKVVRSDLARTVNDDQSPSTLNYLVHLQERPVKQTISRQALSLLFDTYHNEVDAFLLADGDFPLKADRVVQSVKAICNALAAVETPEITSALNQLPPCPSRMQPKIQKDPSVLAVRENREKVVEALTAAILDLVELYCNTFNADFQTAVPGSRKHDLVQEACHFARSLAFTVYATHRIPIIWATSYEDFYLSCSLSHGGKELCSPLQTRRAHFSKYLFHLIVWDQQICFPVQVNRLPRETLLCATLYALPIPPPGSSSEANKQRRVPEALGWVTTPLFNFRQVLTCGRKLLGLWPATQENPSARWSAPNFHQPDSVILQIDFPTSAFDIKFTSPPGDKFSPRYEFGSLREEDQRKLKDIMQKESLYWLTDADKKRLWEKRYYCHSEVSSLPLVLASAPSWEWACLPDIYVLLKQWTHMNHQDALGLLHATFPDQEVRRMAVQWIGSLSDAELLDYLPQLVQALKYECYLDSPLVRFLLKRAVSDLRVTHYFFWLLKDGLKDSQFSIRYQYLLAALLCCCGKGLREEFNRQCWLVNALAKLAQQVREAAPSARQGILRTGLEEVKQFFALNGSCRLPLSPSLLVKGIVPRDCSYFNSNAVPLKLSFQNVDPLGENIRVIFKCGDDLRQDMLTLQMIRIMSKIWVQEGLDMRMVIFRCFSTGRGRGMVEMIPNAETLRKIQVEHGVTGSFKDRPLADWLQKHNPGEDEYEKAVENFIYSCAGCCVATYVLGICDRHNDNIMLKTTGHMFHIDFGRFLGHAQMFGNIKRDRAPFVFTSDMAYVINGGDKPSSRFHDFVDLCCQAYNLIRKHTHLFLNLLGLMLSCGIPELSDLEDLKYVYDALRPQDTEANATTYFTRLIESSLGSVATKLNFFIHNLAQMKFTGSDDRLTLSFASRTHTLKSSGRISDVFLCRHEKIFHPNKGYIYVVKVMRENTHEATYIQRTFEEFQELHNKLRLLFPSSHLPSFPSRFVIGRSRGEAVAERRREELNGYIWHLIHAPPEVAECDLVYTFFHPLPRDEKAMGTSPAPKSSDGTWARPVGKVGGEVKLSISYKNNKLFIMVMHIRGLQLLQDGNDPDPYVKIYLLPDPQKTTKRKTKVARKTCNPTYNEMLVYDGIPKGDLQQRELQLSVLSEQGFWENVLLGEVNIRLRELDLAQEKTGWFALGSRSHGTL

CNC(=O)c1ncn2cc(-c3c(F)ccc(NS(=O)(=O)c4cc(Cl)cnc4OC)c3F)ncc12
CL free [1]: 70 mL/min/kg
fraction unbound at 24 h [2]: 0.002
IC50 [3]: 9 µM
F [4]: 29%
inhibition in vivo at 1 mg/kg [5]: 97%
fAUC [6]: 0.048 µM·h
fCmax [7]: 52 nM
fVdss [8]: 130 L/kg
CL free [9]: 290 mL/min/kg
IC50 [10]: 3.4 µM
fVdss [11]: 60 L/kg
IC50 [12]: 33 µM
Cmax [13]: 26.1 µM
CLH [14]: 4.7 µL/min
EC50 [15]: 6.9 µM
inhibition in vivo at 3 mg/kg [16]: 98%
fAUC [17]: 0.13 µM·h
inhibition in vivo at 0.3 mg/kg [18]: 66%
solubility thermodynamic at 24 h [19]: 0.89 µM (≈ 0.453 µg/mL)
fraction unbound [20]: 0.35
fraction unbound at 24 h [21]: 0.001
Cmax [22]: 10.1 µM
IC50 [23]: 0.047 µM
Activity [24]: Non-Toxic
Papp A→B at 2 h, 5 µM [25]: 9.7 ×10⁻⁶ cm/s
